The text below walks through data of US20220023436A1, “COMBINATION OF ANTIBODY-DRUG CONJUGATE WITH PARP INHIBITOR” (DAIICHI SANKYO COMPANY, LIMITED, priority 2018, published 2022).

Like-named read-outs stand apart in the source and are kept apart here.

Data set [1] deals with Human gastric cancer cell line NCI-N87. Format: in vivo, BALB/c nude mice. As to conditions: NCI-N87 s.c. in nude mice; HER2-ADC (1) 1 mg/kg iv Day 0; olaparib 50 mg/kg, talazoparib 0.4 mg/kg once a day, five times a week, two weeks.
Experimental: (§3) Measurement and calculation formula: In all studies, the major axis and minor axis of tumors were measured twice a week with an electronic digital caliper (CD15-CX, Mitutoyo Corp.), and the tumor volume (mm^3) was calculated. The calculation formula is as shown below.
(§4) Tumor volume (mm^3)=1/2×Major axis (mm)×[Minor axis (mm)]^2
Talazoparib was dissolved with DMSO, diluted with 0.5% hydroxypropyl methylcellulose, and orally administered in a fluid volume of 10 mL/kg.
Human gastric cancer cell line NCI-N87, which was purchased from ATCC (American Type Culture Collection), was suspended into physiological saline, subcutaneously transplanted at 1×10^7 cells into the right side of female nude mice, and the mice were randomly grouped 6 days after the transplantation (Day 0). […] Single administration groups of each drug, a combined administration group, and a solvent administration group as a control group were set up.
In data set [2] the test system is Human ovarian cancer cell line SK-OV-3. Format: in vivo, BALB/c nude mice. As to conditions: SK-OV-3 s.c. in nude mice; HER2-ADC (1) 3 mg/kg iv Day 0 and Day 14; olaparib 60 mg/kg, talazoparib 0.4 mg/kg once a day, five times a week, three weeks.
Experimental: as §3, §4
(§5) The HER2-ADC (1) was diluted with ABS buffer (10 mM acetate buffer [pH 5.5], 5% sorbitol), and intravenously administered in a fluid volume of 10 mL/kg to the tail vein. […] Talazoparib was dissolved with DMSO, diluted with 0.5% hydroxypropyl methylcellulose, and orally administered in a fluid volume of 10 mL/kg.
Human ovarian cancer cell line SK-OV-3 cells, which were purchased from ATCC (American Type Culture Collection), were maintained by nude mouse transplantation, subcutaneously transplanted in the form of a tumor mass of solid tumor (3×3×3 mm) into the right side of female nude mice, and the mice were randomly grouped 19 days after the transplantation (Day 0). HER2-ADC (1) was intravenously administered to the tail vein at a dose of 3 mg/kg on Day 0 and Day 14. […] Single administration groups of each drug, a combined administration group, and a solvent administration group as a control group were set up.
Data set [3] has as its system Human breast cancer cell line HCC70. Kind of data set: Antitumor study (7), subcutaneously transplanted HCC70 cells, HER3-ADC (1). It is filed as in vivo. As to conditions: HCC70 s.c. in nude mice; HER3-ADC (1) 10 mg/kg iv Day 0, 7, 14; olaparib 100 mg/kg po, talazoparib 0.4 mg/kg po once a day, five times a week, two weeks.
Experimental: (§6) Talazoparib was dissolved with dimethyl acetamide, diluted with 5% Kolliphor HS15/Dulbecco's phosphate-buffered saline, and orally administered in a fluid volume of 10 mL/kg.
(§7) In Examples 16 and 17, HER3-ADC (1) was diluted with ABS buffer (10 mM acetate buffer (pH 5.5), 5% sorbitol), and intravenously administered in a fluid volume of 10 mL/kg to the tail vein.
Human breast cancer cell line HCC70 was suspended into physiological saline, subcutaneously transplanted at 1×10^7 cells into the right side of female nude mice, and the mice were randomly grouped 13 days after the transplantation (Day 0). The HER3-ADC (1) was intravenously administered to the tail vein at a dose of 10 mg/kg on Day 0, Day 7 and Day 14. […] Single administration groups of each drug, a combined administration group, and a solvent administration group as a control group were set up.
The subject of data set [4] is Human breast cancer cell line MX-1. Format: in vivo. As to conditions: MX-1 s.c. in nude mice; HER2-ADC (1) 3 mg/kg iv Day 0; olaparib 100 mg/kg po, talazoparib 0.4 mg/kg po once a day, five times a week, two weeks.
Experimental: as §6
Human breast cancer cell line MX-1, which was purchased from CLS (Cell Lines Service), was suspended into 50% Matrigel matrix, subcutaneously transplanted at 5×10^6 cells into the right side of female nude mice, and the mice were randomly grouped 13 days after the transplantation (Day 0). The HER2-ADC (1) was intravenously administered to the tail vein at a dose of 3 mg/kg on Day 0. […] Single administration groups of each drug, a combined administration group, and a solvent administration group as a control group were set up.
For data set [5] the test system is unchanged. Kind of data set: Antitumor study (6), subcutaneously transplanted MX-1 cells, HER3-ADC (1). It is filed as in vivo. Conditions: MX-1 s.c. in nude mice; HER3-ADC (1) 3 mg/kg iv Day 0, 7, 15; olaparib 100 mg/kg po, talazoparib 0.4 mg/kg po once a day, five times a week, two weeks.
Experimental: as §6, §7
Human breast cancer cell line MX-1 was suspended into 50% Matrigel matrix, subcutaneously transplanted at 5×10^6 cells into the right side of female nude mice, and the mice were randomly grouped 13 days after the transplantation (Day 0). The HER3-ADC (1) was intravenously administered to the tail vein at a dose of 3 mg/kg on Day 0, Day 7 and Day 15. […] Single administration groups of each drug, a combined administration group, and a solvent administration group as a control group were set up.
The test system of data set [6] is Human breast cancer cell line KPL-4. Format: in vivo, BALB/c nude mice. On the procedure:
The calculation formula is as shown below.
Human breast cancer cell line KPL-4 [British Journal of Cancer, (1999) 79 (5/6).
Incidentally, in the following evaluation examples relating to antitumor studies, unless otherwise described, the studies are performed by the procedure used in this evaluation example.

Data set [7] has as its system Human ovarian cancer cell line OV-90. Kind of data set: Antitumor study (9), subcutaneously transplanted OV-90 cells, CDH6-ADC (1). As to conditions: OV-90 model, Day 17 after administration, single administration group; cachexia-like weight loss when tumor size exceeds 1500 mm^3.
Experimental: as §3
(§8) Tumor growth inhibition (%)=100×(1−T/C) • T: Average tumor volume of mice of test substance administration group • C: Average tumor volume of mice of control group
Talazoparib was dissolved with DMSO, diluted with 0.5% hydroxypropyl methylcellulose, and orally administered in a fluid volume of 10 mL/kg. […] Veliparib was dissolved with a 0.05M CH COON solution and orally administered in a fluid volume of 10 mL/kg.
Human ovarian cancer cell line OV-90, which was purchased from ATCC, was suspended into physiological saline, subcutaneously transplanted at 1×10^7 cells into the right side of female nude mice, and the mice were randomly grouped 14 days after the transplantation (Day 0). […] Single administration groups of each drug, a combined administration group, and a solvent administration group as a control group were set up.
Data set [8] relates to Human breast cancer cell line KPL-4. It is filed as cell-based. As to conditions: KPL-4 cell line. On the procedure:
(§1) For combination effects, differences between estimates of additive effects from the Loewe model (Greco W R. et al., Pharmacol. Rev. 1995 June; 47 (2): 331-85) and cell growth inhibition rates (%) subjected to sigmoid fitting were converted to matrices, and Synergy Scores were calculated from the matrix elements using a method described in the reference (Lehar J. et al., Nat Biotechnol. 2009 July; 27 (7):659-66). Besides, Synergy Score=0 indicates an additive effect; Synergy Score>0 indicates a synergistic effect; and Synergy Score<0 indicates an antagonistic effect.
(§2) Human breast cancer cell line KPL-4, which was obtained from Dr. Junichi Kurebayashi in Kawasaki Medical School [British Journal of Cancer, (1999) 79 (5/6). 707-717], was used for evaluation. […] Then, KPL-4 cells suspended at 1×10^4 cells/mL with RPMI1640 Medium containing 10% fetal bovine serum were seeded at 2.5 μL/well, and cultured at 37° C. under 5%CO2 for 6 days. After culturing, a solution of CellTiter-Glo 2.0 Assay diluted with an equivalent volume of Glo Lysis buffer, 1× was added at 2 μL/well and subjected to incubation at room temperature for an hour, followed by measurement of luminescence intensity of each well.

In data set [9] the test system is Human gastric cancer cell line NCI-N87. Format: cell-based. On the procedure: Human gastric cancer cell line NCI-N87, which was obtained from ATCC (American Type Culture Collection), was used for evaluation. […] Then, NCI-N87 cells suspended at 4×10^4 cells/mL with RPMI1640 Medium containing 10% fetal bovine serum were seeded at 2.5 μL/well, and cultured at 37° C. under 5%CO2 for 6 days.
After culturing, a solution of CellTiter-Glo 2.0 Assay (Promega) diluted with an equivalent volume of Glo Lysis buffer, 1× (Promega) was added at 2 μL/well and subjected to incubation at room temperature for an hour, followed by measurement of luminescence intensity of each well.
Cell growth inhibition rate […] in each condition was calculated using the following formula: […]
T: average luminescence intensity of wells added with each sample
B: average luminescence intensity of wells added with DMSO and medium
C: average luminescence intensity of wells added with DMSO and cells
Furthermore, sigmoid fitting was performed for the concentration-dependent transition of cell growth inhibition rate in each combination condition using Genedata Screener Analyzer Version 14 (Genedata, hereinafter referred to as Screener).
as §1

The test system of data set [10] is Human lung cancer cell line EBC-1. Format: cell-based. Conditions: EBC-1 cell line. On the procedure: as §1
as §2, with “lung” for “breast”, “EBC-1,” for “KPL-4,”, “Health Science Research Resources Bank (current Japanese Collection” for “Dr. Junichi Kurebayashi in Kawasaki Medical School [British Journal”, “Research Bioresources [JCRB] Cell Bank),” for “Cancer, (1999) 79 (5/6). 707-717],”, “EBC-1” for “KPL-4”, “2×10^4” for “1×10^4”

In data set [11] the test system is Human pancreatic cancer cell line BxPC-3. Format: cell-based. As to conditions: BxPC-3 cell line. As to the method: as §1
Human pancreatic cancer cell line BxPC-3, which was obtained from ATCC, was used for evaluation. […] Then, BxPC-3 cells suspended at 4×10^4 cells/mL with RPMI1640 Medium containing 10% fetal bovine serum were seeded at 2.5 μL/well, and cultured at 37° C. under 5%CO2 for 6 days. After culturing, a solution of CellTiter-Glo 2.0 Assay (Promega) diluted with an equivalent volume of Glo Lysis buffer, 1× (Promega) was added at 2 μL/well and subjected to incubation at room temperature for an hour, followed by measurement of luminescence intensity of each well.

Data set [12] deals with Human breast cancer cell line HCC70. Format: cell-based. On the procedure: as §1
Human breast cancer cell line HCC70, which was obtained from ATCC, was used for evaluation. […] Then, HCC70 cells suspended at 4×10^4 cells/mL with RPMI1640 Medium containing 10% fetal bovine serum were seeded at 2.5 μL/well, and cultured at 37° C. under 5%CO2 for 6 days. After culturing, a solution of CellTiter-Glo 2.0 Assay diluted with an equivalent volume of Glo Lysis buffer, 1× was added at 2 μL/well and subjected to incubation at room temperature for an hour, followed by measurement of luminescence intensity of each well.

The subject of data set [13] is Human breast cancer cell line HCC1806. Conditions: mouse, in vivo.
Experimental: as §3, §4
Tumor growth inhibition (TGI) was calculated in accordance with the following calculation formula.
as §8
Rucaparib (camsylate) was dissolved with DMSO, diluted with physiological saline, and orally administered in a fluid volume of 10 mL/kg. Talazoparib was dissolved with DMSO, diluted with 10% N,N-Dimethylacetamide/5% Kolliphor HS 15/Dulbecco's Phosphate-Buffered Saline, and orally administered in a fluid volume of 10 mL/kg.
Human breast cancer cell line HCC1806, which was Purchased from ATCC, was suspended into physiological saline, subcutaneously transplanted at 1×10^6 cells into the right side of female nude mice, and the mice were randomly grouped 10 days after the transplantation (Day 0). […] Single administration groups of each drug, a combined administration group, and a solvent administration group as a control group were set up, and tumor growth inhibition (TGI) on Day 21 was calculated.
Data set [14] concerns Human breast cancer cell line JIMT-1. Conditions: mouse, in vivo.
Experimental: Measurement and calculation formula: In all studies, the major axis and minor axis of tumors were measured twice a week with an electronic digital caliper (CD15-CX, Mitutoyo Corp.), and the tumor volume (mm^3) was calculated.
as §4, §5
Human breast cancer cell line JIMT-1, which was purchased from DSMZ (Deutsche Sammlung von Mikroorganismen and Zellkulturen GmbH), was suspended into physiological saline, subcutaneously transplanted at 5×10^6 cells into the right side of female nude mice, and the mice were randomly grouped 10 days after the transplantation (Day 0). The HER2-ADC (1) was intravenously administered to the tail vein at a dose of 10 mg/kg on Day 0. […] Single administration groups of each drug, a combined administration group, and a solvent administration group as a control group were set up.
Setting [15] is: KPL-4 s.c. in nude mice, last day of study, HER2-ADC (1) 7.5 mg/kg iv Day 0, olaparib 50 mg/kg ip, niraparib 50 mg/kg po, talazoparib 0.4 mg/kg po, rucaparib (camsylate) 150 mg/kg po, once a day, five times a week, two weeks.
The mark [16] stands for this setting: 6 days, rucaparib (phosphate), >0 synergistic.
Where [17] appears, read: all combinations with olaparib, talazoparib, rucaparib, niraparib.

As for `O=C(c1cc(Cc2n[nH]c(=O)c3ccccc23)ccc1F)N1CCN(C(=O)C2CC2)CC1` [olaparib], the “TGI, single administration” value in [1] is recorded as 26%; in [2], 15%; in data set [3], 18%; in [4] it was 44%; in data set [5], 23%. In addition, the “tumor growth inhibition (TGI), single administration” value (“tumor growth inhibition (TGI)” below) in [6] (setting [15]) amounted to 21%.
`NC(=O)c1cccc2cn(-c3ccc([C@@H]4CCCNC4)cc3)nc12` [niraparib]: in [7], the “mice euthanized due to weight loss” value is 1 case out of 6 cases. Further, in [6] (mouse, in vivo), the “tumor growth inhibition (TGI)” value is recorded as 39%.
In the case of `CNCc1ccc(-c2[nH]c3cc(F)cc4c3c2CCNC4=O)cc1` [rucaparib], in data set [7], the “mice euthanized due to weight loss” value is 1 case out of 6 cases. In addition, the “tumor growth inhibition (TGI)” value in [6] (setting [15]) is recorded as 42%.
On to `CC[C@@]1(O)C(=O)OCc2c1cc1n(c2=O)Cc2c-1nc1cc(F)c(C)c3c1c2[C@@H](NC(=O)CO)CC3` [Compound (1)], for which the “Synergy Score of combination with Niraparib” value was 3.68 in [8] (6 days, >0 synergistic); 1.23 in data set [9] (6 days, >0 synergistic); 3.17 in data set [10] (6 days, >0 synergistic); 1.85 in [11] (6 days, >0 synergistic); 1.61 in data set [12] (6 days, >0 synergistic). Also, the “Synergy Score of combination with Olaparib” value in data set [8] (6 days, >0 synergistic) turned out to be 3.97; in data set [9] (6 days, >0 synergistic, 0 additive, <0 antagonistic), 3.21; in data set [10] (6 days, >0 synergistic), 3.39; in [11] (6 days, >0 synergistic), 1.56; in data set [12] (6 days, >0 synergistic), 1.98. Also, the “Synergy Score of combination with Talazoparib” value was determined as 4.86 in [8] (6 days, >0 synergistic); 4.58 in data set [9] (6 days, >0 synergistic); 5.66 in [10] (6 days, >0 synergistic); 3.25 in [11] (6 days, >0 synergistic); 4.61 in data set [12] (6 days, >0 synergistic). Further, the “Synergy Score of combination with Rucaparib” value in data set [8] (setting [16]) is reported as 4.97; in [9] (setting [16]) it was 1.93; in data set [10] (setting [16]), 4.41; in data set [11] (setting [16]), 2.15; in data set [12] (setting [16]), 2.48. Also, the “combination effect in cell growth inhibition study” value in data set [8] (setting [17]), in [9] (setting [17]), in data set [10] (setting [17]), in data set [11] (setting [17]) and in data set [12] (setting [17]) was “synergistic effects” in each case.
With `Cn1ncnc1[C@H]1c2n[nH]c(=O)c3cc(F)cc(c23)N[C@@H]1c1ccc(F)cc1` [talazoparib], the “TGI, single administration” value in data set [13] is listed as 27%; in [1] it was -2%; in data set [2], 12%; in data set [3], 19%; in data set [14] it was 13%; in data set [4], 47%. In data set [5], the “TGI, single administration” value is recorded as 49%. The “tumor growth inhibition (TGI)” value in data set [6] (setting [15]) amounted to 31%.
